Calls of active or inactive are those of the source. No cut-off for these calls is given here.
Columns and labels:
[1] = target: T1, Amine oxidase [flavin-containing] B (Homo sapiens, UniProt P27338); assay: Inhibition of MAO-B (unknown origin) measured by MAO-GloTM method
T1 sequence (P27338 whole entry): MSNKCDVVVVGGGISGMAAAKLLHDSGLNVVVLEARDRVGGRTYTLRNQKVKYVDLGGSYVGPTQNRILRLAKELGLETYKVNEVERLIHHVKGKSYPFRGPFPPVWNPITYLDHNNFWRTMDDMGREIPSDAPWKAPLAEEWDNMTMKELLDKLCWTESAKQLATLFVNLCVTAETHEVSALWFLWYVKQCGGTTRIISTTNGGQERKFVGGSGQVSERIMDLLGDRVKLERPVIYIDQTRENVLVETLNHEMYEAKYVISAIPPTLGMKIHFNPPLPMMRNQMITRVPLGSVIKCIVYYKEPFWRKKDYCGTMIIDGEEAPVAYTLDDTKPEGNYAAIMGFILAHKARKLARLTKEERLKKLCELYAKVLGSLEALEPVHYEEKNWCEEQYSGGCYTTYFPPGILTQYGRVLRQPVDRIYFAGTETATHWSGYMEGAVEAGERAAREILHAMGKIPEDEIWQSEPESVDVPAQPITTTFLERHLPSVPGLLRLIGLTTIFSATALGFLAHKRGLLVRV

[2] = test system: MGC-803; assay: Induction of mitochondrial membrane potential depolarization in human MGC-803 assessed as viable cells measured at 24 micromol/L for 20 mins by JC-1 staining based flow cytometric analysis (reference value: 0.40%); assay type: functional; settings: MGC-803, 20 min, dose 24 µmol/L, read-out: Activity
[3] = test system: MGC-803; assay: Induction of apoptosis in human MGC-803 cells assessed as morphological change in cell nucleus incubated at 8 to 24 micromol/L for 48 hrs measured by Giemsa staining based microscopic analysis; assay type: functional; settings: dose 8-24 µmol/L
[4] = target: T2, Lysine-specific histone demethylase 1A (Homo sapiens, UniProt O60341); assay: Inhibition of LSD1 in human MGC-803 cells assessed as increase in mono methylation of H3K9; assay type: cell-based; settings: dose 0-24 µmol/L
[5] = test system: MGC-803; assay: Induction of apoptosis in human MGC-803 cells assessed as viable cells at 24 micromol/L for 48 hrs by annexinV-FITC/PI staining based flow cytometric analysis (reference value: 95.54%); assay type: functional; settings: MGC-803, 48 h, dose 24 µmol/L, read-out: Activity
[6] = test system: MGC-803; assay: Induction of apoptosis in human MGC-803 cells assessed as early apoptotic cells at 16 micromol/L for 48 hrs by annexinV-FITC/PI staining based flow cytometric analysis (reference value: 2.92%); assay type: functional; settings: dose 16 µmol/L, at 16 µM
[7] = test system: MGC-803; assay: Induction of mitochondrial membrane potential depolarization in human MGC-803 assessed as late apoptotic cells measured at 24 micromol/L for 20 mins by JC-1 staining based flow cytometric analysis (reference value: 94.98%); assay type: functional; settings: dose 24 µmol/L, at 24 µM
[8] = test system: MGC-803; assay: Induction of mitochondrial membrane potential depolarization in human MGC-803 assessed as viable cells measured at 16 micromol/L for 20 mins by JC-1 staining based flow cytometric analysis (reference value: 0.40%); assay type: functional; settings: MGC-803, 20 min, dose 16 µmol/L, read-out: Activity
[9] = test system: MGC-803; assay: Induction of cell differentiation in human MGC-803 cells assessed as increase in CD86 level at 24 micromol/L incubated for 48 hrs by flow cytometric analysis (reference value: 60%); assay type: functional; settings: dose 24 µmol/L, at 24 µM
[10] = target: T2, Lysine-specific histone demethylase 1A; assay: Binding affinity to LSD1 in human MGC-803 cells assessed as thermal stability measured at 100 uM preincubated for 30 mins and incubated at 42 to 60 degreeC for 3 mins followed by cooled for 180 secs cycle repeated 3 times by CETSA based Western blotting analysis; assay type: cell-based; settings: time 48.0 min
[11] = test system: MGC-803; assay: Inhibition of cell migration in human MGC-803 cells assessed as scratch width decrease treated at 2 to 6 micromol/L for 48 hrs measured by transwell assay based crystal violet staining analysis; assay type: functional; settings: dose 2-6 µmol/L
[12] = target: T2, Lysine-specific histone demethylase 1A; assay: Inhibition of LSD1 in human MGC-803 cells assessed as increase in dimethylation of H3K4; assay type: cell-based; settings: dose 0-24 µmol/L
[13] = test system: MGC-803; assay: Induction of apoptosis in human MGC-803 cells assessed as necrotic cells at 8 micromol/L for 48 hrs by annexinV-FITC/PI staining based flow cytometric analysis (reference value: 0.22%); assay type: functional; settings: dose 8 µmol/L, at 8 µM
[14] = test system: MGC-803; assay: Induction of mitochondrial membrane potential depolarization in human MGC-803 assessed as early apoptotic cells measured at 16 micromol/L for 20 mins by JC-1 staining based flow cytometric analysis (reference value: 4.52%); assay type: functional; settings: dose 16 µmol/L, at 16 µM
[15] = test system: MGC-803; assay: Induction of apoptosis in human MGC-803 cells assessed as necrotic cells at 16 micromol/L for 48 hrs by annexinV-FITC/PI staining based flow cytometric analysis (reference value: 0.22%); assay type: functional; settings: dose 16 µmol/L, at 16 µM
[16] = test system: MGC-803; assay: Induction of apoptosis in human MGC-803 cells assessed as decrease in capase9 expression at 8 to 24 micromol/L; assay type: functional, cell-based; settings: dose 8-24 µmol/L
[17] = target: T2, Lysine-specific histone demethylase 1A; assay: Inhibition of LSD1 in human MGC-803 cells assessed as increase in methylation of H3K4 at 24 micromol/L; assay type: cell-based; settings: dose 24.0 µmol/L
[18] = test system: MGC-803; assay: Inhibition of cell migration in human MGC-803 cells assessed as scratch width decrease treated at 2 to 6 micromol/L for 24 to 48 hrs measured by wound healing assay; assay type: functional, cell-based; settings: dose 2-6 µmol/L, time 24-48 hrs
[19] = test system: MGC-803; assay: Induction of mitochondrial membrane potential depolarization in human MGC-803 assessed as viable cells measured at 8 micromol/L for 20 mins by JC-1 staining based flow cytometric analysis (reference value: 0.40%); assay type: functional; settings: MGC-803, 20 min, dose 8 µmol/L, read-out: Activity
[20] = test system: MGC-803; assay: Induction of mitochondrial membrane potential depolarization in human MGC-803 assessed as necrotic cells measured at 16 micromol/L for 20 mins by JC-1 staining based flow cytometric analysis (reference value: 0.00%); assay type: functional; settings: dose 16 µmol/L, at 16 µM
[21] = test system: MGC-803; assay: Antiproliferative activity against human MGC-803 cells incubated for 48 hrs measured by MTT assay; assay type: functional, cell-based; settings: MGC-803, 48 h
[22] = test system: MGC-803; assay: Induction of mitochondrial membrane potential depolarization in human MGC-803 assessed as early apoptotic cells measured at 8 micromol/L for 20 mins by JC-1 staining based flow cytometric analysis (reference value: 4.52%); assay type: functional; settings: dose 8 µmol/L, at 8 µM
[23] = target: T2, Lysine-specific histone demethylase 1A; assay: Inhibition of recombinant LSD1 (unknown origin) preincubated for 10 mins in presence of H3K4Me2 measured after 30 mins by measuring fluorescence intensity by fluorescence based microplate reader
[24] = test system: MGC-803; assay: Antiproliferative activity against human MGC-803 cells assessed as reduction in stemness of cells by measuring tumor ball diameter at 0 to 8 uM after 48 hrs measured after 5 days using 3D-spheroid assay; assay type: functional, cell-based; settings: dose 0-8 µM
[25] = target: T2, Lysine-specific histone demethylase 1A; assay: Binding affinity to LSD1 in human MGC-803 cells assessed as thermal solubility measured at 100 uM preincubated for 30 mins and incubated at 42 to 60 degreeC for 3 mins followed by cooled for 180 secs cycle repeated 3 times by CETSA based Western blotting analysis; assay type: cell-based; settings: time 48.0 min
[26] = test system: HCT-116; assay: Antiproliferative activity against human HCT-116 cells incubated for 48 hrs measured by MTT assay; assay type: functional, cell-based; settings: HCT-116, 48 h

With `O=C(c1cccc(CN[C@@H]2C[C@H]2c2ccc(F)c(F)c2)c1)N1CCN(c2ccc(Cl)c(Cl)c2)CC1` the IC50 [1] was 3.82 µM, the viability at 24 µM [2] was 1.28% and the Activity [3] was “Active”. The inhibition [4] was “Dose-Dependent Effect”, the viability at 24 µM [5] was 51.8% and the Activity [6] was 31.69%. The Activity [7] was 69.38%, the viability at 16 µM [8] was 1.34% and the Activity [9] was 74.6%. For the same compound, the Activity [10] was “Active”, the inhibition [11] was “Active” and the inhibition [12] was “Dose-Dependent Effect”. It also gave an Activity [13] of 0.32%, an Activity [14] of 17.64% and an Activity [15] of 0.35%. The Activity [16] was “Active”, the inhibition [17] was “Active” and the inhibition [18] was “Active”. The viability at 8 µM [19] was 0.52%, the Activity [20] was 0.02% and the IC50 [21] was 14.3 µM. For the same compound, the Activity [22] was 6.3%, the IC50 [23] was 0.0253 µM and the Activity [24] was “inactive”. The Activity [25] was “Active” and the IC50 [26] was 16.3 µM.

Source: ChEMBL document CHEMBL5346906, “Discovery of novel tranylcypromine-based derivatives as LSD1 inhibitors for gastric cancer treatment” (Eur J Med Chem, 2023)
